Assay results: ChEMBL document CHEMBL1143689, “Synthesis and biological evaluation of 3-aryl-3-(4-phenoxy)-propionic acid as a novel series of G protein-coupled receptor 40 agonists” (J Med Chem, 2007)

Tests used:
[1] = biological target: Free fatty acid receptor 1 (Homo sapiens) (UniProt O14842); assay: Agonist activity at human GPR40 expressed in HEK293 cells assessed as calcium flux response relative to linoleic acid; type: functional, cell-based; design: concentration or dose not given beside the values
[2] = biological target: Free fatty acid receptor 1 (Homo sapiens) (UniProt O14842); assay: Agonist activity at human GPR40 expressed in HEK293 cells assessed as effect on calcium flux; type: functional, cell-based
[3] = biological target: Free fatty acid receptor 1 (Mus musculus) (UniProt Q76JU9); assay: Agonist activity at GPR40 in mouse MIN6 cells assessed as stimulation of 25 mM glucose-mediated insulin secretion at 30 uM; type: functional, cell-based
[4] = Half life in rat at 10 mg/kg, po; type: ADME, organism-based; design: dose 10 mg/kg, route oral; details: in vivo
Cytochrome P450 2C9 = Cytochrome P450 2C9 (Homo sapiens, UniProt P11712); assay: Inhibition of human CYP2C9; type: ADME
[5] = Tmax in rat at 10 mg/kg, po; type: ADME, organism-based; design: dose 10 mg/kg, route oral; details: in vivo
Cytochrome P450 3A4 = Cytochrome P450 3A4 (Homo sapiens, UniProt P08684); assay: Inhibition of human CYP3A4; type: ADME
[6] = Clearance in rat at 2 mg/kg, iv; type: ADME, organism-based; design: dose 2 mg/kg, route intravenous; details: in vivo
[7] = Half life in rat at 2 mg/kg, iv; type: ADME, organism-based; design: dose 2 mg/kg, route intravenous; details: in vivo
Cytochrome P450 2D6 = Cytochrome P450 2D6 (Homo sapiens, UniProt P10635); assay: Inhibition of human CYP2D6; type: ADME
Cytochrome P450 2C19 = Cytochrome P450 2C19 (Homo sapiens, UniProt P33261); assay: Inhibition of human CYP2C19; type: ADME
[8] = AUC in rat at 10 mg/kg, po; type: ADME, organism-based; design: dose 10 mg/kg, route oral; details: plasma
[9] = Cmax in rat at 10 mg/kg, po; type: ADME, organism-based; design: dose 10 mg/kg, route oral; details: in vivo
[10] = Oral bioavailability in rat at 10 mg/kg, po; type: ADME, organism-based; details: in vivo
[11] = Tmax in rat at 2 mg/kg, iv; type: ADME, organism-based; design: dose 2 mg/kg, route intravenous; details: in vivo
Cytochrome P450 1A2 = biological target: T1, Cytochrome P450 1A2 (Homo sapiens, UniProt P05177); assay: Inhibition of human CYP1A2; type: ADME
T1 sequence (P05177 whole entry): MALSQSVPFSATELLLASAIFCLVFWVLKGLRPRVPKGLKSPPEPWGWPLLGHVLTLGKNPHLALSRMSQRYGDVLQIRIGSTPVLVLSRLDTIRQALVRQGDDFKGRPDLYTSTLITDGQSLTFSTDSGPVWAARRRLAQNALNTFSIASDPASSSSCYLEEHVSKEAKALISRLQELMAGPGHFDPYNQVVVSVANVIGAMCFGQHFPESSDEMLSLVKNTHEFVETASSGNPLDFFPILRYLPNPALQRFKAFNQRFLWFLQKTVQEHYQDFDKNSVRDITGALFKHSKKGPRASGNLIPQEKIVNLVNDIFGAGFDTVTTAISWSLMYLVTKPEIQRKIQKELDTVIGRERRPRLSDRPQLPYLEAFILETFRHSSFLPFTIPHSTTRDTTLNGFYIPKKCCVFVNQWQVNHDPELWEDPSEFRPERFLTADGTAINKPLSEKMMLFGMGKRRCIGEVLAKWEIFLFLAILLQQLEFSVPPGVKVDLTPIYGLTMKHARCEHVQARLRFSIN

[12] = Cmax in rat at 2 mg/kg, iv; type: ADME, organism-based; design: dose 2 mg/kg, route intravenous; details: in vivo
[13] = AUC in rat at 2 mg/kg, iv; type: ADME, organism-based; design: dose 2 mg/kg, route intravenous; details: plasma
[14] = biological target: Free fatty acid receptor 1 (Mus musculus, UniProt Q76JU9); assay: Agonist activity at GPR40 in mouse MIN6 cells assessed as stimulation of 25 mM glucose-mediated insulin secretion; type: functional, cell-based
[15] = biological target: Free fatty acid receptor 1 (Mus musculus) (UniProt Q76JU9); assay: Agonist activity at GPR40 in mouse MIN6 cells assessed as stimulation of 5 mM glucose-mediated insulin secretion at 30 uM; type: functional, cell-based

Sequence of Free fatty acid receptor 1 (Homo sapiens) (O14842 whole entry): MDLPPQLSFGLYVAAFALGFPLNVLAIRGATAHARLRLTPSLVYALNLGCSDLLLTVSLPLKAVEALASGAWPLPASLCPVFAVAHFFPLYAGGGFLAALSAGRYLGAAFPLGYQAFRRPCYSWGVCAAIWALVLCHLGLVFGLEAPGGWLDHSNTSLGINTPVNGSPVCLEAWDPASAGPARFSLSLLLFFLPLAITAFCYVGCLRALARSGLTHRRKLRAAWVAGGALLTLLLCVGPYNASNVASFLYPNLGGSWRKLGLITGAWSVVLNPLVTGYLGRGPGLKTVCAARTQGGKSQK
Sequence of Free fatty acid receptor 1 (Mus musculus) (Q76JU9 whole entry): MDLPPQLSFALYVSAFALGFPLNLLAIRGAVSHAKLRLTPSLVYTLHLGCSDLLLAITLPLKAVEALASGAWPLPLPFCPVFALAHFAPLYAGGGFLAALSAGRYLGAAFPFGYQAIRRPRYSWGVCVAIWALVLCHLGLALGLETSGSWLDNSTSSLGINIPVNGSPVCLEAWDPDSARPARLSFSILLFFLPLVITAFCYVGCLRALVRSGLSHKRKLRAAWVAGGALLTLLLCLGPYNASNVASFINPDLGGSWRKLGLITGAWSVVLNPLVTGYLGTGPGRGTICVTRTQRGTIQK
Sequence of Cytochrome P450 2C9 (P11712 whole entry): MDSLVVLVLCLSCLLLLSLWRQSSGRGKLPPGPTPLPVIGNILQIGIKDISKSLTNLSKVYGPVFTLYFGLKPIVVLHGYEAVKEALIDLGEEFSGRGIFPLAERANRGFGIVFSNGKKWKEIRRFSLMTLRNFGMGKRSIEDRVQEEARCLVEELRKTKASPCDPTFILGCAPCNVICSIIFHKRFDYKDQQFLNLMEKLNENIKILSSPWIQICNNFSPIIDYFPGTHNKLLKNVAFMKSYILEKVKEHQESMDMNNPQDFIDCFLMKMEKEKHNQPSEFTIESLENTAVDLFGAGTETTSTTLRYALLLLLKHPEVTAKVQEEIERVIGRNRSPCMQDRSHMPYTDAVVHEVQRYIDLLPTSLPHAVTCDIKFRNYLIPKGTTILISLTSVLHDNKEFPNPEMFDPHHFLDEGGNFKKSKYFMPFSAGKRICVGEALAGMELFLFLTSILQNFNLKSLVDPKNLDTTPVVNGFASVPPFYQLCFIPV
Sequence of Free fatty acid receptor 1 (Q76JU9 whole entry): as the sequence (Q76JU9 whole entry) above
Sequence of Cytochrome P450 2D6 (P10635 whole entry): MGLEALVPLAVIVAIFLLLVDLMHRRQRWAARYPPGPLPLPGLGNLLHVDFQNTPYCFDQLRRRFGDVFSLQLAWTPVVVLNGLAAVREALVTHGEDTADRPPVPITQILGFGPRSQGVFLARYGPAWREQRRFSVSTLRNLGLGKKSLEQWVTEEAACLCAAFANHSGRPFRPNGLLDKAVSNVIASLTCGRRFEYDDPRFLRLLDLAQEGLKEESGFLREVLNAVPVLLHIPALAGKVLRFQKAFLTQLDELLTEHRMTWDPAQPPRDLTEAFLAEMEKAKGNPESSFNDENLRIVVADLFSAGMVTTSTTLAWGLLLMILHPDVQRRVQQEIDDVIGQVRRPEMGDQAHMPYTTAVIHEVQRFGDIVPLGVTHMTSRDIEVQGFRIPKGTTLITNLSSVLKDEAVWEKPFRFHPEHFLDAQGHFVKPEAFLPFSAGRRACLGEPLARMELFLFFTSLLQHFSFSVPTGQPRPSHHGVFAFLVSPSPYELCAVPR
Sequence of Cytochrome P450 2C19 (P33261 whole entry): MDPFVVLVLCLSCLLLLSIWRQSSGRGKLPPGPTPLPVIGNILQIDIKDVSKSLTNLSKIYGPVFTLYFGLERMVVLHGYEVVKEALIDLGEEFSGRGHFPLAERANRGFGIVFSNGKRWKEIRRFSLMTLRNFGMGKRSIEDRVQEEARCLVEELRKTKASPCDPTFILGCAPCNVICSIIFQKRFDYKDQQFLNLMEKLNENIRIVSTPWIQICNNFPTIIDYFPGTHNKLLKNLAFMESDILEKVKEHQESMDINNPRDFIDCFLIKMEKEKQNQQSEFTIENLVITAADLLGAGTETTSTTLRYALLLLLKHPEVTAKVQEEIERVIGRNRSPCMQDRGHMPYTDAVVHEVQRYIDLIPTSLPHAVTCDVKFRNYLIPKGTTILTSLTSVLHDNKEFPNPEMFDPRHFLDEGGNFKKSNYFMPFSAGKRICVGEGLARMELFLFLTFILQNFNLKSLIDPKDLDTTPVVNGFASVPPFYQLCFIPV
Sequence of Cytochrome P450 3A4 (P08684 whole entry): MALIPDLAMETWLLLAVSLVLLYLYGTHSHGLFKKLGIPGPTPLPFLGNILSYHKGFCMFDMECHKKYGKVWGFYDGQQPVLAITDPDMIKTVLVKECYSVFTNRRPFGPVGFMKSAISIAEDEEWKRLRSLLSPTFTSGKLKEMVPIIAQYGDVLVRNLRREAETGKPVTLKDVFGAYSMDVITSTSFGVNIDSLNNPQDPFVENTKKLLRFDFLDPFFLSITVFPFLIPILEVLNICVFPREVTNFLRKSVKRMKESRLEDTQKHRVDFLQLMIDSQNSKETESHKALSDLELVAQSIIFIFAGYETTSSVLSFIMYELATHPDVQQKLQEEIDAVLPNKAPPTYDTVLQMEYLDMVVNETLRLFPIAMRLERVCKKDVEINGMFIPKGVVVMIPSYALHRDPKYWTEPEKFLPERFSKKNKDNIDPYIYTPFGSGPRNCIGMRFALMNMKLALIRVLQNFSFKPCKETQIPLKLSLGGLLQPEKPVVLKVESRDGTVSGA

| Activity [1] | ED50 [2] | further results | Compound |
| --- | --- | --- | --- |
| 77% | 1.86 µM |  | CC(C)CCOc1ccc(C(CC(=O)O)c2ccccc2)cc1 (stereo not drawn) |
| 81% | 1.44 µM |  | CCCCOc1ccc(C(CC(=O)O)c2cccc(F)c2)cc1 (stereo not drawn) |
| 72% | 1.2 µM |  | CCCCOc1ccc(C(CC(=O)O)c2ccccc2)cc1 (stereo not drawn) |
| 79% | 1.29 µM | Activity [3]: 171% | CCCCOc1ccc(C(CC(=O)O)c2cccs2)cc1 (stereo not drawn) |
| 72% | 3.16 µM |  | O=C(O)CC(c1ccccc1)c1ccc(OCCCC(F)(F)F)cc1 (stereo not drawn) |
| 6% | > 10 µM |  | CCCCCOc1cccc(C(CC(=O)O)c2ccccc2)c1 (stereo not drawn) |
| 75% | 2.71 µM |  | C/C=C/COc1ccc(C(CC(=O)O)c2ccccc2)cc1 (stereo not drawn) |
| 98% | 0.3 µM | half-life [4]: 6.33 h; IC50 (Cytochrome P450 2C9): > 22 µM; Tmax [5]: 0.5 h; IC50 (Cytochrome P450 3A4): > 22 µM; clearance [6]: 13.8 mL/min/kg; half-life [7]: 4.78 h; IC50 (Cytochrome P450 2D6): > 22 µM; IC50 (Cytochrome P450 2C19): > 22 µM; AUC [8]: 10700 ng·h/mL; Cmax [9]: 4760 ng/mL; bioavailability [10]: 87%; Tmax [11]: 4.8 min; IC50 (Cytochrome P450 1A2): > 22 µM; Cmax [12]: 5780 ng/mL; AUC [13]: 2480 ng·h/mL | CCC(C)COc1ccc(C(CC(=O)O)c2ccccc2)cc1 (stereo not drawn) |
| 3% | > 10 µM |  | CCCCOc1ccc(C(CC(=O)O)c2ccc(C(F)(F)F)cc2)cc1 (stereo not drawn) |
| 94% | 0.56 µM |  | CC[C@H](C)COc1ccc(C(CC(=O)O)c2ccccc2)cc1 (stereo in doubt; 22(B,S)) |
| 66% | 4.8 µM |  | CCCCOc1ccc(C(CC(=O)O)c2ccccc2O)cc1 (stereo not drawn) |
| 68% | 4.8 µM |  | CCCOc1ccc(C(CC(=O)O)c2ccccc2)cc1 (stereo not drawn) |
| 81% | 2.71 µM |  | C=C(C)CCOc1ccc(C(CC(=O)O)c2ccccc2)cc1 (stereo not drawn) |
| 2% | > 10 µM |  | CC[C@H](C)COc1ccc(C(CC(=O)O)c2ccccc2)cc1 (stereo in doubt; 22(A,S)) |
| 70% | 4.26 µM |  | CCCCCCCOc1ccc(C(CC(=O)O)c2ccccc2)cc1 (stereo not drawn) |
| 60% | 2.97 µM | Activity [3]: 122% | CCCCCOc1ccc(C(CC(=O)O)c2ccccc2)cc1 (stereo not drawn) |
| 68% | 2.88 µM | Activity [3]: 137% | CCCCCCOc1ccc(C(CC(=O)O)c2ccccc2)cc1 (stereo not drawn) |
| 43% | 7.58 µM |  | COCCCOc1ccc(C(CC(=O)O)c2ccccc2)cc1 (stereo not drawn) |
| 96% | 0.64 µM | EC50 [14]: 2.2 µM; Activity [3]: 155% | CCC(CC)COc1ccc(C(CC(=O)O)c2ccccc2)cc1 (stereo not drawn) |
| 98% | 0.71 µM |  | CC[C@@H](C)COc1ccc(C(CC(=O)O)c2ccccc2)cc1 (stereo in doubt; 22(B,R)) |
| 3% | > 10 µM |  | CCCCOc1ccc(C(CCCC(=O)O)c2ccccc2)cc1 (stereo not drawn) |
|  |  | Activity [15]: 141%; Activity [3]: 172% | CCCCC/C=C\C/C=C\CCCCCCCC(=O)O |
| 3% | > 10 µM |  | CC[C@@H](C)COc1ccc(C(CC(=O)O)c2ccccc2)cc1 (stereo in doubt; 22(A,R)) |
| 75% | 2.84 µM |  | CCCCOc1ccc(C(CC(=O)O)c2cccc(C(F)(F)F)c2)cc1 (stereo not drawn) |
